Assay results published in PMC11453076, “Optimization, purification and characterization of laccase from a new endophytic Trichoderma harzianum AUMC14897 isolated from Opuntia ficus-indica and its applications in dye decolorization and wastewater treatment” (Microbial Cell Factories, 2024).

Tested on: T1, laccase from T. harzianum AUMC14897
T1 construct: gene benzenediol:oxygen oxidoreductase; 72 kDa by GFC and SDS-PAGE; single zymogram band
Assay: ABTS oxidation at […] nm, Lineweaver-Burk plot
Type: biochemical, Trichoderma harzianum
Conditions: ABTS 0.02-0.1 mM; pH and temperature of the Km assay not restated (general assay: 50 mM sodium acetate pH 5.4, 37 °C)

CCn1c(=NN=c2sc3cc(S(=O)(=O)O)ccc3n2CC)sc2cc(S(=O)(=O)O)ccc21 [ABTS, 2,2'-Azino-bis(3-ethylbenzothiazoline-6-sulfonic acid)]
Km: 100 µM
